Like-named read-outs stand apart in the source and are kept apart here.
What was measured:
[1] = Pharmacokinetics in ADHD model rats after gavage of JYPs; format: in vivo, SHR rats (ADHD model); conditions: for peak time / half-life: ADHD model rats, oral JYPs; for removed within 12 h: ADHD rats (as printed, in the control-group section); for half-life: male, SHR, plasma
Experimental: Based on the established analytical method for plasma samples, a pharmacokinetic study was conducted on 13 constituents in the plasma of ADHD model rats after gavage of JYPs (Figure 3). The linearity of ln(AUC0-t)–ln(dose) and ln(Cmax)–ln(dose) was analyzed in the same way.
(§1) For the control experiment, healthy male Sprague Dawley (SD) rats of SPF grade ([…] ± 20 g) were purchased from Sipeifu (Beijing) Biotechnology Co., Ltd. (Beijing, China), Animal Quality Certificate No. 110324220102348616. For the ADHD model rats, healthy male SHR rats of SPF grade, weighing 220 ± 20 g, were purchased from SBF (Beijing) Biotechnology Co., Ltd. (Beijing, China), License No. SCXK (Yu) 2019-0010. The animals were accommodated in the Animal Center of Henan University of Traditional Chinese Medicine, which successfully underwent an ethical audit with ethics number DWLL202208003. The animals were bred under controlled conditions at a temperature of 24 °C and a relative humidity of 50 ± 2%. Before the experiment, the animals abstained from eating for 12 h and had unrestricted access to water. The feeding and experimental research conducted on the experimental animals adhered to the laws outlined in the Management of Experimental Animals in Henan Province.
(§2) JYPs were ground into a fine powder and sieved through 60-mesh sieves; then, 20 g of fine JYP powder was taken, having been weighed precisely. A precise volume of 50 mL of pure water was added and mixed well to prepare a 0.4 g/mL suspension solution of JYPs, which was then stored in the refrigerator at 4 °C.
(§3) This study involved 24 healthy male SD rats with a body mass of 220 ± 20 g and 24 healthy male ADHD rats with a body mass of 220 ± 20 g. Subjects abstained from food for a duration of 12 h before the experiment and consumed water without restriction. Both kinds of rats were randomly divided into four groups: a blank group, given an equal dose of water intragastrically, and 3 different administration groups: rats given the equivalent human dose of JYPs by gavage in doses of 1.080 g/kg/d, 2.160 g/kg/d, and 4.320 g/kg/d. Tail vein blood was collected at 0.083, 0.25, 0.5, 0.75, 1, 1.5, 2, 3, 4, 6, 8, 12, 18, and 24 h after dosing. About 0.5 mL of blood was collected in sodium heparin centrifugal tubes, then centrifuged at 4 °C for 10 min at a speed of 3500r/min. We took the upper layer and placed it at −80 °C for preservation.
(§4) We took 200 μL of plasma, added 600 μL of methanol solution and 50 μL of internal standard (100 ng/mL), and subjected it to shaking for 5 min, followed by centrifugation at 4 °C at 12,000 r/min for 10 min. The supernatant was collected and allowed to dry, then reconstituted with 50 μL of 50% methanol and centrifuged at 4 °C at 14,000 r/min for a further 10 min. The supernatant after this process was taken as the test solution. A volume of 5 μL was used for UPLC-MS analysis. The drug concentration in plasma was calculated with the aid of the internal standard.
Chromatographic conditions: Hypersil GOLD (100 × 2.1 mm, 1.9 μm) column; column temperature 35 °C; mobile phase acetonitrile (A)/0.1% formic acid aqueous solution (B); gradient elution; gradient elution program: 0–0.5 min (95% B–95% B), 0.5–8 min (95% B–50% B), 8–14 min (50% B–20% B), 14–20 min (20% B–5% B), 20–22 min (5% B–5% B), 22–25 min (95% B–95% B); flow rate 0.2 mL/min; injection volume 5 μL. The ion source was electrospray ionization (ESI), with positive and negative ion mode spray voltages of 3.50 and 3.0 kV, an ion transfer tube temperature of 300 °C, nitrogen as the carrier gas, a sheath gas pressure of 35 arb, an auxiliary gas pressure of 8 arb, and an auxiliary heater temperature of 275 °C.

[2] = Pharmacokinetics in control rats after gavage of JYPs; format: in vivo, Sprague Dawley (SD) rats; conditions: for half-life / Tmax / AUC(0-inf) / AUC(0-t) / Cmax / MRT last / MRT inf: male, rat, plasma; for Tmax: po; for MRT last: read-out: MRT(0-t); for MRT inf: read-out: MRT(0-∞)
Source text: According to the established method for the analysis of serum biological samples, the pharmacokinetics of various components of rat serum were investigated after the administration of different dosages of JYPs to control rats.
as §1, §2, §3, §4
Chromatographic conditions: Hypersil GOLD (100 × 2.1 mm, 1.9 μm) column; column temperature 35 °C; mobile phase acetonitrile (A)/0.1% formic acid aqueous solution (B); gradient elution; gradient elution program: 0–0.5 min (95% B–95% B), 0.5–8 min (95% B–50% B), 8–14 min (50% B–20% B), 14–20 min (20% B–5% B), 20–22 min (5% B–5% B), 22–25 min (95% B–95% B); flow rate 0.2 mL/min; injection volume 5 μL.

[3] = Sprague Dawley, oral JYPs, range over compounds and doses, read-out: half-life (t1/2)
[4] = Sprague Dawley, oral JYPs, read-out: peak time (Tmax)
[5] = Sprague-Dawley, 1.08 g/kg/day, oral JYPs low dose 1.080 g/kg/d (1st of 3 values)
[6] = Sprague-Dawley, 2.16 g/kg/day, oral JYPs medium dose 2.160 g/kg/d (2nd of 3 values)
[7] = Sprague-Dawley, 4.32 g/kg/day, oral JYPs high dose 4.320 g/kg/d (3rd of 3 values)
[8] = oral JYPs high dose 4.320 g/kg/d (3rd of 3 values)
[9] = oral JYPs low dose 1.080 g/kg/d (1st of 3 values)
[10] = oral JYPs medium dose 2.160 g/kg/d (2nd of 3 values)

## CC12CC(O)C3CC1(OC1OC(CO)C(O)C(O)C1O)C3(COC(=O)c1ccccc1)C(=O)O2 (stereo not shown) [Albiflorin]
[1]
  peak time: less than 1 h
  removed within 12 h: approximately 80%
[1]; high-dose group
  Tmax, model rats compared with control rats: significantly shorter
[1]; middle- and high-dose administration groups
  Cmax, model rats compared with control rats: significantly greater

## COc1cc(/C=C/C(=O)O)ccc1O [Ferulic acid]
[2]; [3]
  half-life: 9.53 to 16.8 h
[2]; [4]
  Tmax: < 1 h

## CCCC=C1OC(=O)C2=C1CCC1C3C=C4C(=O)OC(=CCCC)C4(CC3)C21 (stereo not shown) [Levistilide A]
[2]; [3]
  half-life: 14.4 to 24 h
[2]; [4]
  Tmax: < 2 h
[2]; [5]
  AUC(0-inf): 25.2 ± 7.16 ng·h/mL
  AUC(0-t): 12.9 ± 4.96 ng·h/mL
  Cmax: 1.79 ± 0.66 ng/mL
  MRT last: 9.51 ± 1.01 h
  MRT inf: 22.9 ± 7.04 h
[2]; Sprague-Dawley, 1.08 g/kg/day, oral JYPs low dose 1.080 g/kg/d (1st of 3 values), read-out: t1/2 (converted)
  half-life: 14.4 ± 4.36 h
[2]; [6]
  AUC(0-inf): 34.2 ± 5.08 ng·h/mL
  AUC(0-t): 21.5 ± 2.97 ng·h/mL
  Cmax: 2.86 ± 0.52 ng/mL
  MRT last: 9.23 ± 0.46 h
  MRT inf: 24.1 ± 8.96 h
[2]; Sprague-Dawley, 2.16 g/kg/day, oral JYPs medium dose 2.160 g/kg/d (2nd of 3 values), read-out: t1/2 (converted)
  half-life: 16.4 ± 7.3 h
[2]; [7]
  AUC(0-inf): 59.8 ± 23.1 ng·h/mL
  AUC(0-t): 36.7 ± 11.3 ng·h/mL
  Cmax: 4.6 ± 2.01 ng/mL
  MRT last: 8.92 ± 1.16 h
  MRT inf: 31.2 ± 38.1 h
[2]; Sprague-Dawley, 4.32 g/kg/day, oral JYPs high dose 4.320 g/kg/d (3rd of 3 values), read-out: t1/2 (converted)
  half-life: 22.1 ± 26.9 h
[2]; Sprague-Dawley, 1.08 g/kg/day, oral JYPs low dose 1.080 g/kg/d (1st of 3 values), read-out: Tmax
  Tmax: 1.17 ± 0.41 h
[2]; Sprague-Dawley, 2.16 g/kg/day, oral JYPs medium dose 2.160 g/kg/d (2nd of 3 values), read-out: Tmax
  Tmax: 0.92 ± 0.13 h
[2]; Sprague-Dawley, 4.32 g/kg/day, oral JYPs high dose 4.320 g/kg/d (3rd of 3 values), read-out: Tmax
  Tmax: 1.67 ± 0.52 h
[2]; [8]
  AUMC(0-t): 323.93± 97.01 ng/mL*(h)²
  AUMC(0-ꝏ): 2493.49± 4004.18 ng/mL*(h)²
  Clearances: 1455.57 ± 663.81 mL/h
  Vss: 33463.62 ± 24837.03 mL
[2]; [9]
  AUMC(0-t): 150.01± 45.26 ng/mL*(h)²
  AUMC(0-ꝏ): 584.44± 254.39 ng/mL*(h)²
  Clearances: 794.02 ± 199.77 mL/h
  Vss: 17878.07 ± 6212.70 mL
[2]; [10]
  AUMC(0-t): 197.79±26.58 ng/mL*(h)²
  AUMC(0-ꝏ): 849.62± 407.65 ng/mL*(h)²
  Clearances: 1123.37 ± 161.30 mL/h
  Vss: 26341.48 ± 7666.95 mL

## O=C1C[C@@H](c2ccc(O)cc2)Oc2cc(O)ccc21 [Liquiritigenin]
[2]; [3]
  half-life: 9.53 to 16.8 h
[2]; [4]
  Tmax: < 1 h
[1]
  peak time: less than 1 h
[1]; all dosages
  AUC(0-t), ADHD rats compared with control rats: significantly lower

## O=C1C[C@@H](c2ccc(O[C@@H]3O[C@H](CO)[C@@H](O)[C@H](O)[C@H]3O)cc2)Oc2cc(O)ccc21 [Liquiritin]
[2]; [3]
  half-life: 9.53 to 16.8 h
[2]; [4]
  Tmax: < 1 h
[1]
  peak time: less than 1 h

## C[C@@]12C[C@@]3(O)O[C@@H](O1)[C@]1(COC(=O)c4ccccc4)[C@H]3C[C@@]12O[C@@H]1O[C@H](CO)[C@@H](O)[C@H](O)[C@H]1O [Paeoniflorin]
[2]; [4]
  Tmax: < 1 h
[1]
  peak time: less than 1 h
  removed within 12 h: approximately 80%

## C=C(CC[C@@H](C(=O)O)[C@H]1[C@H](O)C[C@@]2(C)C3=CC[C@@H](C(=C)C)[C@](C)(CCC(=O)O)C3=CC[C@]12C)C(C)C [Poricoic acid A]
[2]; [3]
  half-life: 7.61 to 12.2 h
[2]; [4]
  Tmax: < 4 h
[1]
  peak time: less than 4 h
[1]; rat
  half-life: < 10.3 h
[1]; rat, in vivo
  Cmax, ADHD rats compared with control rats: significantly higher

## C=C(C)[C@@H]1CC=C2C(=CC[C@]3(C)[C@@H]([C@@H](CCC=C(C)C)C(=O)O)[C@H](O)C[C@@]23C)[C@@]1(C)CCC(=O)O [Poricoic acid B]
[2]; [3]
  half-life: 7.61 to 12.2 h
[2]; [4]
  Tmax: < 4 h
[1]
  peak time: less than 4 h
[1]; rat
  half-life: < 10.3 h
[1]; rat, in vivo
  t1/2, pathological condition compared with control rats: shorter
